Patent US20160038565A1, “Methods of Mitigating Side Effects of Radiation Exposure and Chemotherapy” (Gencia Corporation, priority 2012, published 2016)

How the values were obtained:
[1] = Doxorubicin toxicity in naive mice (body weight, food intake, survival); type: in vivo, C57/BL6 mice; details: doxorubicin 25 mg/kg
Method: Two of four groups of five naive C57/BL6 mice were treated with doxorubicin (dox) at dose of 25 mg/kg, whereas the other two groups were left untreated. To assess PTD−TFAM's ability to ameliorate the toxic effects of Doxorubicin one group each of the dox-treated and untreated animals received PTD−TFAM at a dose of 0.3mg/kg on the same day as they were treated with Doxorubicin and every four days for two weeks thereafter (indicated with arrows in FIG. 1). Concurrently mice in the last two groups (one treated and one untreated with Doxorubicin) received vehicle alone (100 μl of 50% sorbitol, 2×PBS). To assess toxicity of the Doxorubicin treatment, mice were weighed once daily.
Each treatment group was housed together in cage separate from the other treatment group(s). The animals in each case share a food hopper. Food intake was evaluated on a group-by-group basis by weighing each group's food once daily. The difference in food weight between two days provides a rough estimate of the group's food intake during the period between two measurements (i.e, a day).

[2] = tested on: orthotopic MiaPaca-2 xenografts; test: Gemcitabine toxicity in orthotopic model of pancreatic cancer; type: in vivo, BALB/c nude mouse; details: gemcitabine 40 mg/kg every 3 days
Method: MiaPaCa-2 tumor cells was maintained in vitro as monolayer culture in DMEM medium supplemented with 10% fetal bovine serum, 2.5% horse serum, 100 U/ml penicillin and 100 μg/m1 streptomycin, and 2 mM L-glutamine at 37° C. in an atmosphere of 5% CO2 in air. The tumor cells were routinely subcultured twice weekly by trypsin-EDTA treatment. Cells in an exponential growth phase will be harvested and counted for tumor inoculation. Before orthotopic implantation, 5×10^6 MiaPaca-2 cells in 50 μl PBS mixed with 50 μl Matrigel were inoculated subcutaneously at the right flank of each BALB/c nude mouse. Upon subcutaneous tumor size reaching about 500 mm^3, tumors were collected for orthotopic implantation.
For orthotopic MiaPaca-2 xenografts, mice were anesthetized by intraperitoneal injection of pentobarbital sodium (50 mg/kg) before tumor inoculation. The abdominal skin was sterilized and laparotomy was performed to expose the pancreas. Each mouse was inoculated with a subcutaneous MiaPaca-2 tumor fragment (2-3 mm in diameter) in the subcapsular region of the pancreas for tumor development. The abdominal wall was closed using No. 6 suture and then sterilized with povidone iodine solution. The day of surgery was denoted as Day 0 (DO). […] The body weight of each mouse was measured on treatment days 1, 5, 8, 12, 15, 19 and 22. […]

| SMILES | deaths / survival ([1]; PTD-TFAM 0.3 mg/kg every four days, five mice per group) | food consumed by the group combined during days 6-8 ([1]; per cage of five mice) | mice dead by day 22 [2] [%] |
| --- | --- | --- | --- |
| COc1cccc2c1C(=O)c1c(O)c3c(c(O)c1C2=O)C[C@@](O)(C(=O)CO)C[C@@H]3O[C@H]1C[C@H](N)[C@H](O)[C@H](C)O1 [dox, doxorubicin] | One of the mice in dox only treatment group began to gain weight, but died on day 14 | less than two grams |  |
| Nc1ccn([C@@H]2O[C@H](CO)[C@@H](O)C2(F)F)c(=O)n1 [gemcitabine] |  |  | 50 |
